Data from US10335392B2, “Cyclic compounds useful as modulators of TNF α” (BRISTOL-MYERS SQUIBB COMPANY, priority 2015, dated 2019).

These molecules were tested against TNFα (Homo sapiens (Human), UniProt P01375) (assay: TNF induced HEK-Blue assay). Conditions: TNFα 0.5 ng/ml; HEK-Blue-CD40L cells, NF-kB-driven secreted alkaline phosphatase reporter; 18 h.
Format: cell-based
Experimental: TNF or CD40L-Induced HEK-Blue Assay
Test compounds serially diluted in DMSO were plated in an assay plate (LABCYTE, Cat. # LP-0200) at final concentrations ranging from 0.004 μM to 25 μM. TNFα (final concentration 0.5 ng/ml) or CD40L (final concentration 30 ng/ml) in assay buffer [DMEM, 4.5 g/l glucose (Gibco, Cat. 21063-029), 10% FBS (Sigma, F4135), 1% Penicillin-Streptomycin (Gibco, Cat. 15140-122), 1% Anti-Anti (Gibco, Cat. 15240-112) and 2 mM L-glutamine (Gibco, Cat. 25030-081)] was then added to the assay plate. After a 30 minute pre-incubation at 37° C. and 5% CO2, HEK-Blue™-CD40L cells (INVIVOGEN, Cat. Code hkb-cd40) containing a NF-kB-driven secreted alkaline phosphatase reporter gene were seeded into the assay plate at a density of 20,000 cells per well. This plate was then incubated for 18 h at 37° C. and 5% CO2. Secreted alkaline phosphatase expression was measured using QUANTI-Blue™ (INVIVOGEN, Cat. Code rep-qb1) according to manufacturer's specifications and the assay plate was read on a PerkinElmer Envision at 620 nm.
Inhibition data for the test compound over a range of concentrations was plotted as percentage inhibition of the test compound (100%=maximum inhibition). IC50 values were determined after correcting for background [(sample read−mean of low control)/(mean of high control−mean of low control)] where by the low control is DMSO without stimulation and high control is DMSO with stimulation. The IC50 is defined as the concentration of test compound which produces 50% inhibition and was quantified using the 4 parameter logistic equation to fit the data.

TNFα, sequence (P01375 77-233): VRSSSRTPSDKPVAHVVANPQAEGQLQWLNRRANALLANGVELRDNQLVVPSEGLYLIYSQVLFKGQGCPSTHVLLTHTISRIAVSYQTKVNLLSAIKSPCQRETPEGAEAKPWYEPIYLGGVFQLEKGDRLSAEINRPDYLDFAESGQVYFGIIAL

| IC50 | SMILES |
| --- | --- |
| 1000 to 10000 nM | CNC(=O)c1ccc(-c2cc3c(cc2F)nc2n3[C@@H](c3ccccc3OC(F)F)[C@H]3C[C@@H]23)cn1 [Example 8, 5-((1aR,8R,8aS)-8-(2-(difluoromethoxy)phenyl)-4-fluoro-1,1a,8,8a-tetrahydrobenzo[d]cyclopropa[3,4]pyrrolo[1,2-a]imidazol-5-yl)-N-methylpicolinamide] |
| < 1000 nM | O=C1CN(c2ncc(-c3cc4c(cc3F)nc3n4[C@@H](c4ccccc4OC(F)F)[C@H]4C[C@@H]34)cn2)CCN1 [Example 9, 4-(5-((1aR,8R,8aS)-8-(2-(difluoromethoxy)phenyl)-4-fluoro-1,1a,8,8a-tetrahydrobenzo[d]cyclopropa[3,4]pyrrolo[1,2-a]imidazol-5-yl)pyrimidin-2-yl)piperazin-2-one] |
| 1000 to 10000 nM | N#Cc1ccc(-c2cc3c(cc2F)nc2n3[C@@H](c3ccccc3OC(F)F)[C@H]3C[C@@H]23)cn1 [Example 10, 5-((1aR,8R,8aS)-8-(2-(difluoromethoxy)phenyl)-4-fluoro-1,1a,8,8a-tetrahydrobenzo[d]cyclopropa[3,4]pyrrolo[1,2-a]imidazol-5-yl)picolinonitrile] |
| < 1000 nM | CC(C)(O)c1ccc(-c2cc3c(cc2F)nc2n3[C@@H](c3ccccc3OC(F)F)[C@H]3C[C@@H]23)cc1 [Example 12, 2-(4-((1aR,8R,8aS)-8-(2-(difluoromethoxy)phenyl)-4-fluoro-1,1a,8,8a-tetrahydrobenzo[d]cyclopropa[3,4]pyrrolo[1,2-a]imidazol-5-yl)phenyl)propan-2-ol] |
| < 1000 nM | CC(C)(O)c1ccc(-c2cc3c(cc2F)nc2n3[C@@H](c3ccccc3OC(F)F)[C@H]3C[C@@H]23)cn1 [Example 13, 2-(5-((1aR,8R,8aS)-8-(2-(difluoromethoxy)phenyl)-4-fluoro-1,1a,8,8a-tetrahydrobenzo[d]cyclopropa[3,4]pyrrolo[1,2-a]imidazol-5-yl)pyridin-2-yl)propan-2-ol] |
| < 1000 nM | OC1(c2ncc(-c3cc4c(cc3F)nc3n4[C@@H](c4ccccc4OC(F)F)[C@H]4C[C@@H]34)cn2)COC1 [Example 14, 3-(5-((1aR,8R,8aS)-8-(2-(difluoromethoxy)phenyl)-4-fluoro-1,1a,8,8a-tetrahydrobenzo[d]cyclopropa[3,4]pyrrolo[1,2-a]imidazol-5-yl)pyrimidin-2-yl)oxetan-3-ol] |
| < 1000 nM | O=S1(=O)CCN(c2ncc(-c3cc4c(cc3F)nc3n4[C@@H](c4ccccc4OC(F)F)[C@H]4C[C@@H]34)cn2)CC1 [Example 15, 4-(5-((1aR,8R,8aS)-8-(2-(difluoromethoxy)phenyl)-4-fluoro-1,1a,8,8a-tetrahydrobenzo[d]cyclopropa[3,4]pyrrolo[1,2-a]imidazol-5-yl)pyrimidin-2-yl) thiomorpholine 1,1-dioxide] |
| 1000 to 10000 nM | CC(C)(O)Cn1cc(-c2cc3c(cc2F)nc2n3[C@@H](c3ccccc3OC(F)F)[C@H]3C[C@@H]23)cn1 [Example 16, 1-(4-((1aR,8R,8aS)-8-(2-(difluoromethoxy)phenyl)-4-fluoro-1,1a,8,8a-tetrahydrobenzo[d]cyclopropa[3,4]pyrrolo[1,2-a]imidazol-5-yl)-1H-pyrazol-1-yl)-2-methylpropan-2-ol] |
| 1000 to 10000 nM | CC(C)(C)OC(=O)N1CC=C(c2cc3c(cc2F)nc2n3[C@@H](c3ccccc3OC(F)F)[C@H]3C[C@@H]23)CC1 [Example 17, tert-butyl 4-((1aR,8R,8aS)-8-(2-(difluoromethoxy)phenyl)-4-fluoro-1,1a,8,8a-tetrahydrobenzo[d]cyclopropa[3,4]pyrrolo[1,2-a]imidazol-5-yl)-3,6-dihydropyridine-1(2H)-carboxylate] |
| < 1000 nM | O=C(O)CN1CCN(c2ncc(-c3cc4c(cc3F)nc3n4[C@H](c4ccccc4OC(F)F)[C@@H]4C[C@H]34)cn2)CC1 [Example 18, 2-(4-(5-((1aS,8S,8aR)-8-(2-(difluoromethoxy)phenyl)-4-fluoro-1,1a,8,8a-tetrahydrobenzo[d]cyclopropa[3,4]pyrrolo[1,2-a]imidazol-5-yl)pyrimidin-2-yl)piperazin-1-yl)acetic acid] |
| 1000 to 10000 nM | NC(=O)c1ccc(-c2cc3c(cc2F)nc2n3[C@H](c3ccccc3OC(F)F)[C@@H]3C[C@H]23)cn1 [Example 19, 5-((1aS,8S,8aR)-8-(2-(difluoromethoxy)phenyl)-4-fluoro-1,1a,8,8a-tetrahydrobenzo[d]cyclopropa[3,4]pyrrolo[1,2-a]imidazol-5-yl)picolinamide] |
| < 1000 nM | NC(=O)c1ccc(-c2cc3c(cc2F)nc2n3[C@@H](c3ccccc3OC(F)F)[C@@H]3C[C@H]23)cn1 [Example 22, 5-((1aS,8R,8aR)-8-(2-(difluoromethoxy)phenyl)-4-fluoro-1,11a,8,8a-tetrahydrobenzo[d]cyclopropa[3,4]pyrrolo[1,2-a]imidazol-5-yl)picolinamide] |
| 1000 to 10000 nM | CC(C)(O)c1ncc(-c2cc3c(cc2F)nc2n3[C@@H](c3ccccc3Oc3ccccc3)[C@@H]3C[C@H]23)cn1 [Example 27, 2-(5-((1aS,8R,8aR)-4-fluoro-8-(2-phenoxyphenyl)-1,1a,8,8a-tetrahydrobenzo[d]cyclopropa[3,4]pyrrolo[1,2-a]imidazol-5-yl)pyrimidin-2-yl)propan-2-ol] |
| 1000 to 10000 nM | CC(C)(O)c1ncc(-c2cc3c(cc2F)nc2n3[C@H](c3ccccc3Oc3ccccc3)[C@@H]3C[C@H]23)cn1 [Example 28, 2-(5-((1aS,8S,8aR)-4-fluoro-8-(2-phenoxyphenyl)-1,1a,8,8a-tetrahydrobenzo[d]cyclopropa[3,4]pyrrolo[1,2-a]imidazol-5-yl)pyrimidin-2-yl)propan-2-ol] |
| 1000 to 10000 nM | CC(C)(O)c1ncc(-c2cc3c(cc2F)nc2n3[C@@H](c3ccccc3Oc3ccccc3F)[C@@H]3C[C@H]23)cn1 [Example 29, 2-(5-((1aS,8R,8aR)-4-fluoro-8-(2-(2-fluorophenoxy)phenyl)-1,1a,8,8a-tetrahydrobenzo[d]cyclopropa[3,4]pyrrolo[1,2-a]imidazol-5-yl)pyrimidin-2-yl)propan-2-ol] |
| 10000 to 25000 nM | CC(C)(O)c1ncc(-c2cc3c(cc2F)nc2n3[C@H](c3ccccc3Oc3ccccc3F)[C@@H]3C[C@H]23)cn1 [Example 30, 2-(5-((1aS,8S,8aR)-4-fluoro-8-(2-(2-fluorophenoxy)phenyl)-1,1a,8,8a-tetrahydrobenzo[d]cyclopropa[3,4]pyrrolo[1,2-a]imidazol-5-yl)pyrimidin-2-yl)propan-2-ol] |
| < 1000 nM | Fc1cc2nc3n(c2cc1-c1cnc(N2CCOCC2)nc1)[C@@H](c1ccccc1OC(F)F)[C@@H]1C[C@H]31 [Example 31, 4-(5-((1aS,8R,8aR)-8-(2-(difluoromethoxy)phenyl)-4-fluoro-1,1a,8,8a-tetrahydrobenzo[d]cyclopropa[3,4]pyrrolo[1,2-a]imidazol-5-yl)pyrimidin-2-yl) morpholine] |
| 1000 to 10000 nM | Fc1cc2nc3n(c2cc1-c1cnc(N2CCOCC2)nc1)[C@H](c1ccccc1OC(F)F)[C@@H]1C[C@H]31 [Example 32, 4-(5-((1aS,8S,8aR)-8-(2-(difluoromethoxy)phenyl)-4-fluoro-1,1a,8,8a-tetrahydrobenzo[d]cyclopropa[3,4]pyrrolo[1,2-a]imidazol-5-yl)pyrimidin-2-yl) morpholine] |
